Experimental data: patent US6770624B2, “Treatment of heart failure with growth hormone” (The Regents of the University of California, priority 1997, dated 2004)

Key:
AT1 receptor = assay: Angiotensin II dose-response curves for changes in carotid arterial pressure (confirmation of AT1 receptor blockade); assay type: in vivo, rat; settings: losartan 2 g/L in drinking water for 2 weeks; normal rats and rats with chronic MI
Experimental: In order to confirm AT1 receptor blockade with losartan, angiotensin II dose-response curves for changes in carotid arterial pressure were carried out in an additional 14 female Sprague-Dawley rats (260-300 g/each). Eight rats were normal, 4 untreated and 4 treated for 2 weeks with losartan (2 g/L in drinking water). In 6 rats a large MI was produced 3 to 4 weeks prior to study, of which 3 received losartan (2 g/L in drinking water) for 2 weeks and 3 were untreated.

normal rats = assay: Body, organ and cardiac weights in normal rats after AT1 blockade and GH; assay type: in vivo, rat; settings: mean ± SD, n=8
Experimental: Normal Rats: Normal female Sprague Dawley rats (240-260 g each) were randomized to one of the following four groups: rats receiving placebo for 6 weeks (Control group, n=8); rats treated with placebo for 6 weeks with concomitant rhGH (2 mg/kg bid) for the final 2 weeks (GH group, n=8); rats treated with relatively low-dose losartan (L) (20 mg/kg/day in drinking water) for 6 weeks with concomitant rhGH (2 mg/kg/bid, SC) during the final 2 weeks (LowL+GH, n=8); and rats treated with high dose L (2 g/L in drinking water) for 6 weeks with concomitant rhGH (2 mg/kg/bid, SC) during the final 2 weeks (HighL+GH, n=8). In these 32 animals, the responses of body weight (BW) and the weights of the heart and other selected organs were then examined.
After the hemodynamic measurements, the rats were euthanized and wet weights of heart and other selected organs, including liver, spleen, and kidney, were measured. Cardiac fixation was then performed as described by R. L. Duerr (1996) supra. In brief, polyethylene catheters were introduced into the LV apex and the descending aorta. The LV chamber was filled from a reservoir and maintained at 10 mmHg. After washout of blood from the coronary arteries with heparinized saline, the myocardium was perfused retrogradely from the aorta with 10% buffered formalin at a constant pressure of 60 mmHg for 20 minutes. The heart was then excised and immersed in 10% formalin for 24 hours. Subsequently, the atria and adhesions were dissected away and the right ventricle (RV) and LV were separated and weighted, the interventricular septum being included with the LV. The right tibia was dissected and its length from the condyles to the tip of the medial malleolus was measured with a micrometer caliper by the method of Yin et al., Am J Physiol (1982); 243. To compare heart weights among groups, the weights were normalized by tibial length (TL) as well as by body weight (BW).

Compound	shift of angiotensin II-blood pressure dose-response curves (AT1 receptor)	BW (body weight) (normal rats; 6 weeks, rhGH final 2 weeks)	Kidney weight (normal rats; 6 weeks, rhGH final 2 weeks)	Liver weight (normal rats; 6 weeks, rhGH final 2 weeks)	Spleen weight (normal rats; 6 weeks, rhGH final 2 weeks)	TL (tibia length) (normal rats; 6 weeks, rhGH final 2 weeks)	HW/BW (normal rats)	LV/BW (normal rats)	RV/BW (normal rats)	LV wt (normal rats; measured after fixation)	RV wt (normal rats; measured after fixation)	HW (heart weight) (normal rats; measured before fixation)
CCCCc1nc(Cl)c(CO)n1Cc1ccc(-c2ccccc2-c2nn[nH]n2)cc1 [Losartan, losartan]	marked rightward shifts											
GH: recombinant human growth hormone; placebo 6 weeks with rhGH 2 mg/kg bid for the final 2 weeks		319.9 ± 15.9 g	2.30 ± 0.19 g	13.69 ± 0.94 g	1.21 ± 0.10 g	4.05 ± 0.08 cm	0.45 ± 0.04%	0.33 ± 0.01%	0.08 ± 0.01%	1.04 ± 0.06 g	0.26 ± 0.02 g	1.42 ± 0.12 g
